Results reported in paper PMC12454493, “Insight on novel sulfamoylphenyl pyrazole derivatives as anticancer carbonic anhydrase inhibitors” (Molecular Diversity, 2024).
“And” between values parts separate entries of the source, which are not always exact repeats. Identical values can stand only once.

How the values were obtained:
[1] = target: hCA XII (Homo sapiens, UniProt O43570); assay: CA inhibitory activity, spectrophotometric p-NPA assay; format: biochemical; details: p-NPA substrate, pH 7.5, 25 °C, triplicate; read-out: IC50 (µM) ± SD hCA XII
Sequence of hCA XII (O43570 25-354): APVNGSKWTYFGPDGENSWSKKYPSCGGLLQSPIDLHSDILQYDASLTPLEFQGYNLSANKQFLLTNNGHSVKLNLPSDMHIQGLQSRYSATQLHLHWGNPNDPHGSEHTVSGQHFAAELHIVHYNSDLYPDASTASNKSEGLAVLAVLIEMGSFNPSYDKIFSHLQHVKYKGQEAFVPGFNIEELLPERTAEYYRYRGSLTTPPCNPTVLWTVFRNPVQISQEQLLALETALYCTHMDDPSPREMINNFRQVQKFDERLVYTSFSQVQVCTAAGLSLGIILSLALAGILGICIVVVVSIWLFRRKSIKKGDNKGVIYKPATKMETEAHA

[2] = system: KM12; assay: NCI-60 one-dose SRB screen (Colon Cancer); format: cell-based; details: Homo sapiens, single dose 10 µM, 48 h, read-out: Growth inhibition percent (GI %)
[3] = system: SW-620; assay: NCI-60 one-dose SRB screen (Colon Cancer); format: cell-based; details: Homo sapiens, single dose 10 µM, 48 h, read-out: Growth inhibition percent (GI %)
[4] = system: HCC-2998; assay: NCI-60 one-dose SRB screen (Colon Cancer); format: cell-based; details: Homo sapiens, single dose 10 µM, 48 h, read-out: Growth inhibition percent (GI %)
[5] = system: HCT-116; assay: NCI-60 one-dose SRB screen (Colon Cancer); format: cell-based; details: Homo sapiens, single dose 10 µM, 48 h, read-out: Growth inhibition percent (GI %)
[6] = system: HT29; assay: NCI-60 one-dose SRB screen (Colon Cancer); format: cell-based; details: Homo sapiens, HT-29, single dose 10 µM, 48 h, read-out: Growth inhibition percent (GI %)
[7] = system: COLO 205; assay: NCI-60 one-dose SRB screen (Colon Cancer); format: cell-based; details: Homo sapiens, single dose 10 µM, 48 h, read-out: Growth inhibition percent (GI %)
[8] = system: HCT-15; assay: NCI-60 one-dose SRB screen (Colon Cancer); format: cell-based; details: Homo sapiens, single dose 10 µM, 48 h, read-out: Growth inhibition percent (GI %)
[9] = system: SN12C; assay: NCI-60 one-dose SRB screen (Renal Cancer); format: cell-based; details: Homo sapiens, single dose 10 µM, 48 h, read-out: Growth inhibition percent (GI %)
[10] = system: UO-31; assay: NCI-60 one-dose SRB screen (Renal Cancer); format: cell-based; details: Homo sapiens, single dose 10 µM, 48 h, read-out: Growth inhibition percent (GI %)
[11] = system: A498; assay: NCI-60 one-dose SRB screen (Renal Cancer); format: cell-based; details: Homo sapiens, single dose 10 µM, 48 h, read-out: Growth inhibition percent (GI %)
[12] = system: TK-10; assay: NCI-60 one-dose SRB screen (Renal Cancer); format: cell-based; details: Homo sapiens, single dose 10 µM, 48 h, read-out: Growth inhibition percent (GI %)
[13] = system: 786-0; assay: NCI-60 one-dose SRB screen (Renal Cancer); format: cell-based; details: Homo sapiens, single dose 10 µM, 48 h, read-out: Growth inhibition percent (GI %)
[14] = system: RXF 393; assay: NCI-60 one-dose SRB screen (Renal Cancer); format: cell-based; details: Homo sapiens, single dose 10 µM, 48 h, read-out: Growth inhibition percent (GI %)
[15] = system: CAKI-1; assay: NCI-60 one-dose SRB screen (Renal Cancer); format: cell-based; details: Homo sapiens, single dose 10 µM, 48 h, read-out: Growth inhibition percent (GI %)
[16] = system: ACHN; assay: NCI-60 one-dose SRB screen (Renal Cancer); format: cell-based; details: Homo sapiens, single dose 10 µM, 48 h, read-out: Growth inhibition percent (GI %)
[17] = system: OVCAR-3; assay: NCI-60 one-dose SRB screen (Ovarian cancer); format: cell-based; details: Homo sapiens, single dose 10 µM, 48 h, read-out: Growth inhibition percent (GI %)
[18] = system: OVCAR-5; assay: NCI-60 one-dose SRB screen (Ovarian cancer); format: cell-based; details: Homo sapiens, single dose 10 µM, 48 h, read-out: Growth inhibition percent (GI %)
[19] = system: OVCAR-4; assay: NCI-60 one-dose SRB screen (Ovarian cancer); format: cell-based; details: Homo sapiens, single dose 10 µM, 48 h, read-out: Growth inhibition percent (GI %)
[20] = system: IGROV1; assay: NCI-60 one-dose SRB screen (Ovarian cancer); format: cell-based; details: Homo sapiens, IGROV-1, single dose 10 µM, 48 h, read-out: Growth inhibition percent (GI %)
[21] = system: SK-OV-3; assay: NCI-60 one-dose SRB screen (Ovarian cancer); format: cell-based; details: Homo sapiens, single dose 10 µM, 48 h, read-out: Growth inhibition percent (GI %)
[22] = system: NCI/ADR-RES; assay: NCI-60 one-dose SRB screen (Ovarian cancer); format: cell-based; details: Homo sapiens, single dose 10 µM, 48 h, read-out: Growth inhibition percent (GI %)
[23] = system: OVCAR-8; assay: NCI-60 one-dose SRB screen (Ovarian cancer); format: cell-based; details: Homo sapiens, single dose 10 µM, 48 h, read-out: Growth inhibition percent (GI %)
[24] = system: SNB-75; assay: NCI-60 one-dose SRB screen (CNS Cancer); format: cell-based; details: Homo sapiens, single dose 10 µM, 48 h, read-out: Growth inhibition percent (GI %)
[25] = system: U251; assay: NCI-60 one-dose SRB screen (CNS Cancer); format: cell-based; details: Homo sapiens, U-251, single dose 10 µM, 48 h, read-out: Growth inhibition percent (GI %)
[26] = system: SNB-19; assay: NCI-60 one-dose SRB screen (CNS Cancer); format: cell-based; details: Homo sapiens, single dose 10 µM, 48 h, read-out: Growth inhibition percent (GI %)
[27] = system: SF-539; assay: NCI-60 one-dose SRB screen (CNS Cancer); format: cell-based; details: Homo sapiens, single dose 10 µM, 48 h, read-out: Growth inhibition percent (GI %)
[28] = system: SF-268; assay: NCI-60 one-dose SRB screen (CNS Cancer); format: cell-based; details: Homo sapiens, single dose 10 µM, 48 h, read-out: Growth inhibition percent (GI %)
[29] = system: SF-295; assay: NCI-60 one-dose SRB screen (CNS Cancer); format: cell-based; details: Homo sapiens, single dose 10 µM, 48 h, read-out: Growth inhibition percent (GI %)
[30] = system: PC-3; assay: NCI-60 one-dose SRB screen (Prostate Cancer); format: cell-based; details: Homo sapiens, single dose 10 µM, 48 h, read-out: Growth inhibition percent (GI %)
[31] = system: DU-145; assay: NCI-60 one-dose SRB screen (Prostate Cancer); format: cell-based; details: Homo sapiens, single dose 10 µM, 48 h, read-out: Growth inhibition percent (GI %)
[32] = system: NCI-H23; assay: NCI-60 one-dose SRB screen (Non-Small Cell Lung Cancer); format: cell-based; details: Homo sapiens, single dose 10 µM, 48 h, read-out: Growth inhibition percent (GI %)
[33] = system: NCI-H226; assay: as above; format: cell-based; details: Homo sapiens, single dose 10 µM, 48 h, read-out: Growth inhibition percent (GI %)
[34] = system: NCI-H460; assay: as above; format: cell-based; details: Homo sapiens, single dose 10 µM, 48 h, read-out: Growth inhibition percent (GI %)
[35] = system: NCI-H322M; assay: as above; format: cell-based; details: Homo sapiens, single dose 10 µM, 48 h, read-out: Growth inhibition percent (GI %)
[36] = system: A549/ATCC; assay: as above; format: cell-based; details: Homo sapiens, single dose 10 µM, 48 h, read-out: Growth inhibition percent (GI %)
[37] = system: EKVX; assay: as above; format: cell-based; details: Homo sapiens, single dose 10 µM, 48 h, read-out: Growth inhibition percent (GI %)
[38] = system: HOP-92; assay: as above; format: cell-based; details: Homo sapiens, single dose 10 µM, 48 h, read-out: Growth inhibition percent (GI %)
[39] = system: HOP-62; assay: as above; format: cell-based; details: Homo sapiens, single dose 10 µM, 48 h, read-out: Growth inhibition percent (GI %)
[40] = system: NCI-H522; assay: as above; format: cell-based; details: Homo sapiens, single dose 10 µM, 48 h, read-out: Growth inhibition percent (GI %)
[41] = system: MDA-MB-435; assay: NCI-60 one-dose SRB screen (Melanoma); format: cell-based; details: Homo sapiens, single dose 10 µM, 48 h, read-out: Growth inhibition percent (GI %)
[42] = system: SK-MEL-2; assay: NCI-60 one-dose SRB screen (Melanoma); format: cell-based; details: Homo sapiens, single dose 10 µM, 48 h, read-out: Growth inhibition percent (GI %)
[43] = system: MALME-3M; assay: NCI-60 one-dose SRB screen (Melanoma); format: cell-based; details: Homo sapiens, single dose 10 µM, 48 h, read-out: Growth inhibition percent (GI %)
[44] = system: UACC-257; assay: NCI-60 one-dose SRB screen (Melanoma); format: cell-based; details: Homo sapiens, single dose 10 µM, 48 h, read-out: Growth inhibition percent (GI %)
[45] = system: SK-MEL-28; assay: NCI-60 one-dose SRB screen (Melanoma); format: cell-based; details: Homo sapiens, single dose 10 µM, 48 h, read-out: Growth inhibition percent (GI %)
[46] = system: LOX IMVI; assay: NCI-60 one-dose SRB screen (Melanoma); format: cell-based; details: Homo sapiens, single dose 10 µM, 48 h, read-out: Growth inhibition percent (GI %)
[47] = system: SK-MEL-5; assay: NCI-60 one-dose SRB screen (Melanoma); format: cell-based; details: Homo sapiens, single dose 10 µM, 48 h, read-out: Growth inhibition percent (GI %)
[48] = system: M14; assay: NCI-60 one-dose SRB screen (Melanoma); format: cell-based; details: Homo sapiens, single dose 10 µM, 48 h, read-out: Growth inhibition percent (GI %)

## Cc1ccc(-c2nn(-c3ccc(S(N)(=O)=O)cc3)cc2C(=O)NNC(N)=S)cc1 [Compound 9b, 2-[1-(4-Sulfamoylphenyl)-3-(p-tolyl)-1H-pyrazole-4-carbonyl] hydrazine-1-carbothioamide]
[1]
  IC50: 0.33 µM and 0.335 µM
[2]
  inhibition at 10 µM: < 5%
[3]
  inhibition at 10 µM: < 5%
[4]
  inhibition at 10 µM: < 5%
[5]
  inhibition at 10 µM: < 5%
[6]
  inhibition at 10 µM: < 5%
[7]
  inhibition at 10 µM: < 5%
[8]
  inhibition at 10 µM: < 5%
[9]
  inhibition at 10 µM: < 5%
[10]
  inhibition at 10 µM: < 5%
[11]
  inhibition at 10 µM: < 5%
[12]
  inhibition at 10 µM: < 5%
[13]
  inhibition at 10 µM: < 5%
[14]
  inhibition at 10 µM: < 5%
[15]
  inhibition at 10 µM: 7.05%
[16]
  inhibition at 10 µM: < 5%
[17]
  inhibition at 10 µM: < 5%
[18]
  inhibition at 10 µM: < 5%
[19]
  inhibition at 10 µM: < 5%
[20]
  inhibition at 10 µM: < 5%
[21]
  inhibition at 10 µM: < 5%
[22]
  inhibition at 10 µM: < 5%
[23]
  inhibition at 10 µM: < 5%
[24]
  inhibition at 10 µM: 6.3%
[25]
  inhibition at 10 µM: < 5%
[26]
  inhibition at 10 µM: < 5%
[27]
  inhibition at 10 µM: 5.95%
[28]
  inhibition at 10 µM: < 5%
[29]
  inhibition at 10 µM: < 5%
[30]
  inhibition at 10 µM: < 5%
[31]
  inhibition at 10 µM: < 5%
[32]
  inhibition at 10 µM: < 5%
[33]
  inhibition at 10 µM: < 5%
[34]
  inhibition at 10 µM: < 5%
[35]
  inhibition at 10 µM: < 5%
[36]
  inhibition at 10 µM: < 5%
[37]
  inhibition at 10 µM: < 5%
[38]
  inhibition at 10 µM: < 5%
[39]
  inhibition at 10 µM: < 5%
[40]
  inhibition at 10 µM: < 5%
[41]
  inhibition at 10 µM: < 5%
[42]
  inhibition at 10 µM: < 5%
[43]
  inhibition at 10 µM: < 5%
[44]
  inhibition at 10 µM: < 5%
[45]
  inhibition at 10 µM: < 5%
[46]
  inhibition at 10 µM: < 5%
[47]
  inhibition at 10 µM: < 5%
[48]
  inhibition at 10 µM: < 5%

## CCOC(=O)c1ccc(NC(=O)COC(=O)c2cn(-c3ccc(S(N)(=O)=O)cc3)nc2-c2ccc(OC)cc2)cc1 [Compound 5c, 2-[(4-(Ethoxycarbonyl)phenyl)amino]-2-oxoethyl 3-(4-methoxyphenyl)-1-(4-sulfamoylphenyl)-1H-pyrazole-4-carboxylate]
[1]
  IC50: 0.27 µM and 0.272 µM
[2]
  inhibition at 10 µM: 26.2%
[3]
  inhibition at 10 µM: 7.9%
[4]
  inhibition at 10 µM: < 5%
[5]
  inhibition at 10 µM: 35.2%
[6]
  inhibition at 10 µM: 17.3%
[7]
  inhibition at 10 µM: 25.1%
[8]
  inhibition at 10 µM: 48.5%
[9]
  inhibition at 10 µM: 21.3%
[10]
  inhibition at 10 µM: 38.5%
[11]
  inhibition at 10 µM: 23.2%
[12]
  inhibition at 10 µM: 23.8%
[13]
  inhibition at 10 µM: 53.1%
[14]
  inhibition at 10 µM: 55.3%
[15]
  inhibition at 10 µM: 55.6%
[16]
  inhibition at 10 µM: 21.3%
[17]
  inhibition at 10 µM: 23.2%
[18]
  inhibition at 10 µM: 13.7%
[19]
  inhibition at 10 µM: 42.5%
[20]
  inhibition at 10 µM: < 5%
[21]
  inhibition at 10 µM: 11.6%
[22]
  inhibition at 10 µM: < 5%
[23]
  inhibition at 10 µM: 5.25%
[24]
  inhibition at 10 µM: 49.3%
[25]
  inhibition at 10 µM: 34.3%
[26]
  inhibition at 10 µM: 30.7%
[27]
  inhibition at 10 µM: 38.7%
[28]
  inhibition at 10 µM: 28.5%
[29]
  inhibition at 10 µM: 32.7%
[30]
  inhibition at 10 µM: 50.9%
[31]
  inhibition at 10 µM: 14.7%
[32]
  inhibition at 10 µM: 17.5%
[33]
  inhibition at 10 µM: 26.7%
[34]
  inhibition at 10 µM: 28.8%
[35]
  inhibition at 10 µM: 9.97%
[36]
  inhibition at 10 µM: 39.4%
[37]
  inhibition at 10 µM: 42.2%
[38]
  inhibition at 10 µM: 26%
[39]
  inhibition at 10 µM: 12%
[40]
  inhibition at 10 µM: 31%
[41]
  inhibition at 10 µM: 27.3%
[42]
  inhibition at 10 µM: 23.1%
[43]
  inhibition at 10 µM: 21%
[44]
  inhibition at 10 µM: 25.4%
[45]
  inhibition at 10 µM: 24.6%
[46]
  inhibition at 10 µM: 21.3%
[47]
  inhibition at 10 µM: 34.9%
[48]
  inhibition at 10 µM: 40.3%
